Assay results published in patent publication US20240066133A1, “THERAPEUTIC AGENTS AND CONJUGATES THEREOF” (Beijing Xuanyi PharmaSciences Co., Ltd., priority 2020, published 2024).
Like-named read-outs stand apart in the source and are kept apart here. One block for each molecule: values may come before it.

Key:
hSTING R232 = biological target: T1, hSTING R232 (Homo sapiens, UniProt Q86WV6, H232R); assay: IRF activation in 293T-Dual hSTING R232 cells (Quanti-Blue); type: cell-based; details: 24 hr, read-out: EC50 IRF3
T1 construct: host or cells: 293T-Dual hSTING R232 cells
Procedure: A test compound with a serial of 1:3 dilution was prepared in complete medium, and 20 μL of the compound was added to the corresponding well, and incubated with the cells at 37° C. incubator for 24 hr.
To determine the effect on interferon regulatory factor (IRF) activation, 15 μL of cell culture supernatant was transferred into a fresh 96-half area-well plate, 90 μL of Quanti-Blue was added to each well and incubated at 37° C. for 90 min. OD at 650 nm was recorded. EC50 was calculated by nonlinear regression fit with 4-parameter responsive curve fitting using GraphPad Version 8 software (Table 2).

[1] = biological target: T2, Human STING (hSTING-R232) (Homo sapiens, UniProt Q86WV6, H232R); assay: Activation of human STING signaling in THP1-Dual KI-hSTING-R232 cells (IRF promoter, QUANTI-Luc); type: cell-based; details: THP1 cell line, 24 h, read-out: EC50 IRF3
T2 construct: host or cells: THP1-Dual KI-hSTING-R232 cells
Procedure: Activation of Human STING Signaling in THP1 Cell Line
The cells were treated with 20 μl/well of compounds at 8 concentrations in duplicate in 96-well plate, and incubate for 24 h. To measure IRF promoter activity, 15 μl of cell culture supernatant was mixed with 45 μl QUANTI-Luc in an opaque 96-well plate and immediately measured using Luminometer; to measure NF-κB promoter activity, 15 μl of supernatant was mixed with 90 μl QUANTI-Blue, and incubated at 37° C. for 90 minutes, and read at OD650 nm. EC50 was calculated by nonlinear regression fit with 4-parameter responsive curve fitting using GraphPad Version 8 software (Table 1).

MC38 tumor cells [2] = details: IT 5 ug/mouse every three days, three injections; for anti-tumor efficacy (tumor growth, FIG. 1): single agent, subcutaneous MC38
Procedure: To Evaluate the in vivo efficacy of A5-I, A5-II, A6-I and A6-II, C57BL/6 mouse was subcutaneously inoculated in the right flank with MC38 tumor cells (1×10^6) in 40 ul of HBSS for tumor development. Treatment started when tumor size reached around 80-100 mm^3, on day 7 after tumor cell implantation. Compounds were administered by IT injection and repeated every three days with total three injections. […] Tumor volumes were measured twice to thrice weekly.

MC38 tumor cells [3] = assay: MC38 murine syngeneic model, Example 98 (Table 5); type: in vivo, C57BL/6 mouse; details: IT, Q3d × 3; doses per Table 5 (A5-I 3, A19 50 and 17, A33 17×2/8×1, A34 50, A38 51×1/17×2, A69 50, A71 50, A85 46 μg/mouse)
Procedure: Example 98. Evaluation of Compound A5-I, A19, A33, A34, A38, A69, A71 and A85 in MC38 Murine Syngeneic Model
Compounds (listed in Table 5), were administered by IT injection.

T2 sequence (Q86WV6 whole entry H232R): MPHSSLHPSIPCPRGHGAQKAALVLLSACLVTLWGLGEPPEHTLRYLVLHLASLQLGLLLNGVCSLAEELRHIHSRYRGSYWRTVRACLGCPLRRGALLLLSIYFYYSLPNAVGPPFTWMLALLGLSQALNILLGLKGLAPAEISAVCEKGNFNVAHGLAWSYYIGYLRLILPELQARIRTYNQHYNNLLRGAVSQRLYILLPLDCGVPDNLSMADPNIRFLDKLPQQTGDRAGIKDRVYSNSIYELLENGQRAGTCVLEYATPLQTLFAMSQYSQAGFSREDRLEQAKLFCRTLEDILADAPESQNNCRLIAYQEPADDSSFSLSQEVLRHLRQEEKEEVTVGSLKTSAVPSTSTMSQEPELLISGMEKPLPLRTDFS
T1 sequence (Q86WV6 whole entry H232R): as above

EC50 (hSTING R232): 59 nM
EC50 ([1]; Assay Results 1 (average of more than 2 runs)): 450 nM
EC50 ([1]; Assay Results 2 (single run)): 564 nM
Compound: BP1(=O)OC[C@H]2O[C@@H](n3cnc4c(N)ncnc43)[C@H](F)[C@@H]2O[P@@](=O)(S)OC[C@H]2O[C@@H](n3cnc4c(=O)[nH]c(N)nc43)[C@H](F)[C@@H]2O1 (single isomer, unassigned) [Compound A1]

Compound: B[P@]1(=O)OC[C@H]2O[C@@H](n3cnc4c(N)ncnc43)[C@H](F)[C@@H]2O[P@@](=O)(S)OC[C@H]2O[C@@H](n3cnc4c(N)ncnc43)[C@H](F)[C@@H]2O1 [Compound A5-I, ((2R,3R,3aR,5S,7aR,9R,10R,10aR,12S,14aR)-2,9-bis(6-amino-9H-purin-9-yl)-3,10-difluoro-12-mercapto-5,12-dioxidooctahydro-2H,7H-difuro [3,2-d:3′,2′-j][1,3,7,9]tetraoxa[2,8]diphosphacyclododecin-5-yl)trihydroborate]
tumor regression (FIG. 1) (MC38 tumor cells [2]): complete regression for all treated mice
anti-tumor efficacy (tumor growth, FIG. 1) (MC38 tumor cells [2]): significant anti-tumor efficacy
anti-tumor activity compared to vehicle-treated group (FIG. 5) (MC38 tumor cells [3]): significantly improved anti-tumor activity

Compound: B[P@@]1(=O)OC[C@H]2O[C@@H](n3cnc4c(N)ncnc43)[C@H](F)[C@@H]2O[P@](=O)(S)OC[C@H]2O[C@@H](n3cnc4c(N)ncnc43)[C@H](F)[C@@H]2O1 [Compound A6-II]
anti-tumor efficacy (tumor growth, FIG. 1) (MC38 tumor cells [2]): significant anti-tumor efficacy

Compound: BP1(=O)OC[C@H]2O[C@@H](n3cnc4c(N)ncnc43)[C@H](F)[C@@H]2O[P@](=O)(S)OC[C@H]2O[C@@H](n3cnc4c(N)ncnc43)[C@H](F)[C@@H]2O1 (some centres unmarked) [Compound A6-I]
anti-tumor efficacy (tumor growth, FIG. 1) (MC38 tumor cells [2]): significant anti-tumor efficacy
